Experimental data published in PubChem BioAssay (NCI).
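The concentration for 50% growth inhibition is given as GI50. TGI denotes the concentration required for complete inhibition of growth.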

Assays:
Test in all cases: NCI-60 cell line screen, 384-well format
786-0 renal = system: 786-0 renal
A498 renal = system: A498 renal
A549 NSCLC = system: A549 NSCLC
ACHN renal = system: ACHN renal
BT-549 breast = system: BT-549 breast
CAKI-1 renal = system: CAKI-1 renal
CCRF-CEM leukemia = system: CCRF-CEM leukemia
COLO 205 colon = system: COLO 205 colon
DU-145 prostate = system: DU-145 prostate
HCC-2998 colon = system: HCC-2998 colon
HCT-15 colon = system: HCT-15 colon
HL-60(TB) leukemia = system: HL-60(TB) leukemia
HOP-62 NSCLC = system: HOP-62 NSCLC
HOP-92 NSCLC = system: HOP-92 NSCLC
HS 578T breast = system: HS 578T breast
HT29 colon = system: HT29 colon
IGROV1 ovarian = system: IGROV1 ovarian
K-562 leukemia = system: K-562 leukemia
KM12 colon = system: KM12 colon
LOX IMVI melanoma = system: LOX IMVI melanoma
M14 melanoma = system: M14 melanoma
MALME-3M melanoma = system: MALME-3M melanoma
MCF7 breast = system: MCF7 breast
MDA-MB-231 breast = system: MDA-MB-231 breast
MDA-MB-435 melanoma = system: MDA-MB-435 melanoma
MDA-MB-468 breast = system: MDA-MB-468 breast
MOLT-4 leukemia = system: MOLT-4 leukemia
NCI-H226 lung = system: NCI-H226 lung
NCI-H23 lung = system: NCI-H23 lung
NCI-H322M lung = system: NCI-H322M lung
NCI-H460 NSCLC = system: NCI-H460 NSCLC
NCI-H522 lung = system: NCI-H522 lung
NCI/ADR-RES ovarian = system: NCI/ADR-RES ovarian
OVCAR-3 ovarian = system: OVCAR-3 ovarian
OVCAR-4 ovarian = system: OVCAR-4 ovarian
OVCAR-5 ovarian = system: OVCAR-5 ovarian
OVCAR-8 ovarian = system: OVCAR-8 ovarian
PC-3 prostate = system: PC-3 prostate
RPMI-8226 leukemia = system: RPMI-8226 leukemia
RXF 393 renal = system: RXF 393 renal
SF-268 CNS = system: SF-268 CNS
SF-295 CNS = system: SF-295 CNS
SF-539 CNS = system: SF-539 CNS
SK-MEL-28 melanoma = system: SK-MEL-28 melanoma
SK-MEL-5 melanoma = system: SK-MEL-5 melanoma
SK-OV-3 ovarian = system: SK-OV-3 ovarian
SN12C renal = system: SN12C renal
SNB-19 CNS = system: SNB-19 CNS
SNB-75 CNS = system: SNB-75 CNS
SR leukemia = system: SR leukemia
SW-620 colon = system: SW-620 colon
T-47D breast = system: T-47D breast
TK-10 renal = system: TK-10 renal
U251 glioblastoma = system: U251 glioblastoma
UACC-62 melanoma = system: UACC-62 melanoma
UO-31 renal = system: UO-31 renal

## Cc1cc2c(F)c(Oc3ncnn4cc(OC[C@@H](C)OC(=O)[C@H](C)N)c(C)c34)ccc2[nH]1
786-0 renal
  GI50: 3.54 µM
A498 renal
  GI50: 5.04 µM
A549 NSCLC
  GI50: 4.99 µM
  TGI: 17.7 µM
ACHN renal
  GI50: 2.97 µM
BT-549 breast
  GI50: 3.65 µM
  TGI: 15.3 µM
CAKI-1 renal
  GI50: 3.65 µM
  TGI: 16.4 µM
CCRF-CEM leukemia
  GI50: 1.84 µM
  TGI: 6.14 µM
COLO 205 colon
  GI50: 0.847 µM
  TGI: 12.7 µM
DU-145 prostate
  GI50: 3.74 µM
HCC-2998 colon
  GI50: 3.59 µM
HCT-15 colon
  GI50: 0.914 µM
  TGI: 3.46 µM
HL-60(TB) leukemia
  GI50: 1.04 µM
  TGI: 3.2 µM
HOP-62 NSCLC
  GI50: 6.64 µM
  TGI: 20.3 µM
HOP-92 NSCLC
  GI50: 4.17 µM
  TGI: 17.3 µM
HS 578T breast
  GI50: 6.21 µM
  TGI: 17.7 µM
HT29 colon
  GI50: 2.77 µM
  TGI: 12 µM
IGROV1 ovarian
  GI50: 4.71 µM
K-562 leukemia
  GI50: 1.04 µM
  TGI: 3.18 µM
KM12 colon
  GI50: 3.17 µM
  TGI: 13.8 µM
LOX IMVI melanoma
  GI50: 1.43 µM
  TGI: 3.81 µM
M14 melanoma
  GI50: 4.9 µM
  TGI: 17.4 µM
MALME-3M melanoma
  GI50: 2.07 µM
  TGI: 12.5 µM
MCF7 breast
  GI50: 3.45 µM
  TGI: 16.7 µM
MDA-MB-231 breast
  GI50: 1.82 µM
  TGI: 18.2 µM
MDA-MB-435 melanoma
  GI50: 7.77 µM
MDA-MB-468 breast
  GI50: 2.16 µM
  TGI: 5.55 µM
MOLT-4 leukemia
  GI50: 0.272 µM
  TGI: 0.612 µM
NCI-H226 lung
  GI50: 4.33 µM
  TGI: 18 µM
NCI-H23 lung
  GI50: 10.1 µM
  TGI: 21.7 µM
NCI-H322M lung
  GI50: 7.3 µM
  TGI: 19.7 µM
NCI-H460 NSCLC
  GI50: 0.643 µM
  TGI: 4.37 µM
NCI-H522 lung
  GI50: 4.57 µM
NCI/ADR-RES ovarian
  GI50: 3.52 µM
OVCAR-3 ovarian
  GI50: 6.03 µM
OVCAR-4 ovarian
  GI50: 7.98 µM
OVCAR-5 ovarian
  GI50: 8.29 µM
OVCAR-8 ovarian
  GI50: 4.41 µM
  TGI: 17.2 µM
PC-3 prostate
  GI50: 3.17 µM
RPMI-8226 leukemia
  GI50: 0.467 µM
  TGI: 1.94 µM
RXF 393 renal
  GI50: 3.75 µM
  TGI: 14.2 µM
SF-268 CNS
  GI50: 3.4 µM
  TGI: 16.8 µM
SF-295 CNS
  GI50: 3.24 µM
  TGI: 12.8 µM
SF-539 CNS
  GI50: 2.25 µM
  TGI: 10.9 µM
SK-MEL-28 melanoma
  GI50: 3.29 µM
  TGI: 17.5 µM
SK-MEL-5 melanoma
  GI50: 0.984 µM
SK-OV-3 ovarian
  GI50: 5.13 µM
SN12C renal
  GI50: 4.53 µM
SNB-19 CNS
  GI50: 5.13 µM
SNB-75 CNS
  GI50: 4.41 µM
  TGI: 17.1 µM
SR leukemia
  GI50: 0.0548 µM
  TGI: 0.241 µM
SW-620 colon
  GI50: 4.96 µM
  TGI: 17.7 µM
T-47D breast
  GI50: 3.34 µM
TK-10 renal
  GI50: 2.27 µM
U251 glioblastoma
  GI50: 3.67 µM
UACC-62 melanoma
  GI50: 3.13 µM
  TGI: 17.5 µM
UO-31 renal
  GI50: 6.25 µM
